{"source": "patent US8017318B1", "about": "“Method for detecting and/or quantifying a known function from a nucleic acid sample” (priority 1998, dated 2011)", "target": "T1, β-lactamase TEM-1 (Escherichia coli, UniProt P62593)", "T1 construct": "made in house; host or cells: cell-free in vitro translation as described by Zubay (microbial system)", "T1 sequence (P62593 24-286 limits assumed)": "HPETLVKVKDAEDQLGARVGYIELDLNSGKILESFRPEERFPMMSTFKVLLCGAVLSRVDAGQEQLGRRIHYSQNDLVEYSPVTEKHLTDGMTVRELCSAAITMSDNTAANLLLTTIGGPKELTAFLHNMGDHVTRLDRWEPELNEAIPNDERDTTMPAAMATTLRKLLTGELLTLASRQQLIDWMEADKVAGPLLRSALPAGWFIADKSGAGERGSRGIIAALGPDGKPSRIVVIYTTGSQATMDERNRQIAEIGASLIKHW", "test": "\"resistance to clavulanic acid\" beta-lactamase activity test with nitrocephine on in vitro translated enzyme", "format": "biochemical", "conditions": "sample 1 (100% germs resistant to antibiotics only, 0% double resistance); 1 μl clavulanic acid, 3 minutes at 25° C., then nitrocephine; 486 nm", "protocol": "10 μl of culture at DO600.2.3 were centrifuged and each pellet was resuspended into 12 μl of cellular lysis buffer (10 mM Tris HCl pH 7.5, 1 mM EDTA, 50 μg/ml proteinase K) and incubated 15 minutes at 55° C. then 15 minutes at 80° C. 9 μl of each of these lysates was added to a PCR amplification mixture that permitted amplification of the gene conferring monoresistance and of the gene conferring polyresistance, as well as of the sequences permitting their in vitro expression. 5 μl of each PCR amplification were used to carry out an in vitro transcription as described by Gurevich et al. (Gurevich V. A., Pokrovskaya I. D., Obukhova T. A. and Zozulya S., 1991, Preparative in vitro mRNA synthesis using SP6 and T7 polymerases, Anal. Biochem., 195, 207-213) 10 μl of each transcription was used to translate in vitro the proteins as described by Zubay (Zubay G., 1973, In vitro synthesis of protein in microbial systems, Ann. Rev. Genet., 7, 267-287) to a final volume of 100 μl\nTwo types of activity tests were carried out: • A measurement of the “total” beta-lactamase activity by using as substrate a chromogenic antibiotic: nitrocephine. […] The reaction was followed by monitoring absorbance changes at 486 nm. • A measurement of the “resistance to clavulanic acid” activity by using as substrate a chromogenic antibiotic: nitrocephine and a given concentration of clavulanic acid. […]"}
{"molecule": "O=C(O)[C@H]1/C(=C/CO)O[C@@H]2CC(=O)N21", "note": "[clavulanic acid]", "values": [{"measurement": "beta-lactamase activity detected in the presence of clavulanic acid", "result": "no activity is detected"}]}
